Columns and labels:
[1] = target: recombinant human FLAP protein (Homo sapiens (Human), UniProt P20292); test: FLAP binding assay (Scintillation Proximity Assay, displacement of [125I]L-691,831); details: read-out: FLAP SPA IC50
Procedure: Assessment of Biological Properties 1. Binding Assay: Compounds are assessed for the ability to bind to FLAP in a binding assay that measures compound-specific displacement of an iodinated (^125I) FLAP inhibitor via a Scintillation Proximity Assay format (adapted from S. Charleson et al., Mol. Pharmacol., 1992, 41, 873-879). […] The cells are lysed with a Dounce homogenizer and the material is centrifuged at 10,000×g for 10 minutes. The supernatant is then collected and centrifuged at 100,000×g for 60 minutes. To prepare membrane protein for an assay, an aliquot of the 100,000×g pellet is resuspended in 1 ml of buffer A, Dounce homogenized, and finally subjected to polytron mixing (30 seconds). […] Mol. Pharmacol., 41, 873-879, 1992) and finally 50 μl of the bead/protein mixture. (final concentrations: beads, 200 μg/well; protein, 5 μg/well; […] The plates are shaken for 2 h before reading on a Microbeta plate reader.

[2] = tested on: synthesis of LTB4 in human whole blood; test: Human whole blood LTB4 production inhibition assay; assay type: cell-based; details: calcimycin stimulated, read-out: hWB LTB4 IC50
Procedure: Compounds are additionally tested in a human whole blood assay to determine their ability to inhibit the synthesis of LTB4 in a cellular system. Compounds are combined with heparinized human whole blood and incubated for 15 minutes at 37° C. Calcimycin (20 μM final, prepared in phosphate-buffered saline, pH 7.4) is then added and the mixture is incubated for another 30 minutes at 37° C. The samples are centrifuged for 5 min at low speed (1500×g) and the plasma layer is removed. Plasma LTB4 concentrations are then measured using an antibody-based homogenous time-resolved fluorescence method (CisBio, Bedford, Mass.).

Sequence of recombinant human FLAP protein (P20292 whole entry): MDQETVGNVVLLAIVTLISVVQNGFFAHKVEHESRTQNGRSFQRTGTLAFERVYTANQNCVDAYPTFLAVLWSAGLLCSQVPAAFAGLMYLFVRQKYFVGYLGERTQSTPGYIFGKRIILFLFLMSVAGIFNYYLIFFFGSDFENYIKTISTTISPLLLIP

SMILES	IC50 [1]	IC50 [2]
Nc1ncc(-c2ccc(C3(c4noc(-c5ccc(NCC6(O)CC6)nc5)n4)CCC3)cn2)cn1 [Example 18, 1-({[5-(3-{1-[6-(2-aminopyrimidin-5-yl)pyridin-3-yl]cyclobutyl}-1,2,4-oxadiazol-5-yl)pyridin-2-yl]amino}methyl)cyclo-propanol]	1.8 nM	95 nM
Cn1cc(-c2nc(C3(c4ccc(-c5cnc(N)nc5)nc4)CCC3)no2)c(C(F)(F)F)n1 [Example 20, 5-[5-(1-{5-[1-methyl-3-(trifluoromethyl)-1H-pyrazol-4-yl]-1,2,4-oxadiazol-3-yl}cyclobutyl)pyridin-2-yl]pyrimidin-2-amine]	9.2 nM	530 nM
CC(C)(CO)Nc1ccc(-c2nc(C3(c4ccc(-c5cnc(N)nc5)nc4)CCC3)no2)cn1 [Example 21, 2-{[5-(3-{1-[6-(2-aminopyrimidin-5-yl)pyridin-3-yl]cyclobutyl}-1,2,4-oxadiazol-5-yl)pyridin-2-yl]amino}-2-methylpropan-1-ol]	2.6 nM	250 nM
Nc1ncc(-c2ccc(C3(c4noc(-c5cnn6cccnc56)n4)CCC3)cn2)cn1 [Example 25, 5-(5-{1-[5-(pyrazolo[1,5-a]pyrimidin-3-yl)-1,2,4-oxadiazol-3-yl]cyclobutyl}pyridin-2-yl)pyrimidin-2-amine]	4 nM	46 nM
CC(C)(CO)n1cc(-c2nc(C3(c4ccc(-c5cnc(N)nc5)nc4)CCC3)no2)cn1 [Example 30, 2-[4-(3-{1-[6-(2-aminopyrimidin-5-yl)pyridin-3-yl]cyclobutyl}-1,2,4-oxadiazol-5-yl)-1H-pyrazol-1-yl]-2-methylpropan-1-ol]	33 nM	400 nM
Nc1ncc(-c2ccc(C3(c4noc(-c5ccc(NC(CO)CO)nc5)n4)CCC3)cn2)cn1 [Example 33, 2-{[5-(3-{1-[6-(2-aminopyrimidin-5-yl)pyridin-3-yl]cyclobutyl}-1,2,4-oxadiazol-5-yl)pyridin-2-yl]amino}propane-1,3-diol]	2.2 nM	2600 nM
CN(C)C(=O)[C@@H]1CCCN1c1ccc(-c2nc(C3(c4ccc(-c5cnc(N)nc5)nc4)CCC3)no2)cn1 [Example 34, 1-[5-(3-{1-[6-(2-aminopyrimidin-5-yl)pyridin-3-yl]cyclobutyl}-1,2,4-oxadiazol-5-yl)pyridin-2-yl]-N,N-dimethyl-L-prolinamide]	40 nM	1800 nM
Nc1ncc(-c2ccc(C3(c4noc(-c5ccc(N6CCC[C@H]6C(=O)O)nc5)n4)CCC3)cn2)cn1 [Example 35, 1-[5-(3-{1-[6-(2-aminopyrimidin-5-yl)pyridin-3-yl]cyclobutyl}-1,2,4-oxadiazol-5-yl)pyridin-2-yl]-L-proline]	43 nM	> 5000 nM
COC(=O)[C@@H]1CCCN1c1ccc(-c2nc(C3(c4ccc(-c5cnc(N)nc5)nc4)CCC3)no2)cn1 [Example 36, methyl 1-[5-(3-{1-[6-(2-aminopyrimidin-5-yl)pyridin-3-yl]cyclobutyl}-1,2,4-oxadiazol-5-yl)pyridin-2-yl]-L-prolinate]	5.9 nM	1400 nM
COC(=O)[C@H]1CNCCN1c1ccc(-c2nc(C3(c4ccc(-c5cnc(N)nc5)nc4)CCC3)no2)cn1 [Example 38, methyl (2R)-1-[5-(3-{1-[6-(2-aminopyrimidin-5-yl)pyridin-3-yl]cyclobutyl}-1,2,4-oxadiazol-5-yl)pyridin-2-yl]piperazine-2-carboxylate]	3.2 nM	75 nM
COC(=O)[C@H]1CN(c2ccc(-c3nc(C4(c5ccc(-c6cnc(N)nc6)nc5)CCC4)no3)cn2)CCN1 [Example 40, methyl (2R)-4-[5-(3-{1-[6-(2-aminopyrimidin-5-yl)pyridin-3-yl]cyclobutyl}-1,2,4-oxadiazol-5-yl)pyridin-2-yl]piperazine-2-carboxylate]	3.3 nM	92 nM
Nc1ncc(-c2ccc(C3(c4noc(-c5ccc(N6CCN[C@H](C(=O)O)C6)nc5)n4)CCC3)cn2)cn1 [Example 41, (2S)-4-[5-(3-{1-[6-(2-aminopyrimidin-5-yl)pyridin-3-yl]cyclobutyl}-1,2,4-oxadiazol-5-yl)pyridin-2-yl]piperazine-2-carboxylic acid]	7.7 nM	> 5000 nM
Nc1ncc(-c2ccc(C3(c4noc(-c5ccc(N6CCN[C@@H](C(=O)O)C6)nc5)n4)CCC3)cn2)cn1 [Example 42, (2R)-4-[5-(3-{1-[6-(2-aminopyrimidin-5-yl)pyridin-3-yl]cyclobutyl}-1,2,4-oxadiazol-5-yl)pyridin-2-yl]piperazine-2-carboxylic acid]	7.7 nM	> 5000 nM
Nc1ncc(-c2ccc(C3(c4noc(-c5ccc(N6CC[C@@H](O)C6)nc5)n4)CCC3)cn2)cn1 [Example 43, (3R)-1-[5-(3-{1-[6-(2-aminopyrimidin-5-yl)pyridin-3-yl]cyclobutyl}-1,2,4-oxadiazol-5-yl)pyridin-2-yl]pyrrolidin-3-ol]	1.2 nM	170 nM
Nc1ncc(-c2ccc(C3(c4noc(-c5ccc(N6CCC[C@@H]6CO)nc5)n4)CCC3)cn2)cn1 [Example 45, {(2R)-1-[5-(3-{1-[6-(2-aminopyrimidin-5-yl)pyridin-3-yl]cyclobutyl}-1,2,4-oxadiazol-5-yl)pyridin-2-yl]pyrrolidin-2-yl}methanol]	3.1 nM	750 nM

Other lines, results leading:

IC50 [1]	IC50 [2]	SMILES
8.7 nM	> 5000 nM	Nc1ncc(-c2ccc(C3(c4noc(-c5ccc(S(N)(=O)=O)cc5)n4)CCC3)cn2)cn1 [Example 17, 4-(3-{1-[6-(2-aminopyrimidin-5-yl)pyridin-3-yl]cyclobutyl}-1,2,4-oxadiazol-5-yl)benzenesulfonamide]
58 nM	> 5000 nM	Nc1ncc(-c2ccc(C3(c4noc(-c5cccc(S(N)(=O)=O)c5)n4)CCC3)cn2)cn1 [Example 19, 3-(3-{1-[6-(2-aminopyrimidin-5-yl)pyridin-3-yl]cyclobutyl}-1,2,4-oxadiazol-5-yl)benzenesulfonamide]
2.5 nM	140 nM	Nc1ncc(-c2ccc(C3(c4noc(-c5ccc(OCCO)nc5)n4)CCC3)cn2)cn1 [Example 22, 2-{[5-(3-{1-[6-(2-aminopyrimidin-5-yl)pyridin-3-yl]cyclobutyl}-1,2,4-oxadiazol-5-yl)pyridin-2-yl]oxy}ethanol]
26 nM	430 nM	Nc1ncc(-c2ccc(C3(c4noc(-c5cscn5)n4)CCC3)cn2)cn1 [Example 23, 5-(5-{1-[5-(1,3-thiazol-4-yl)-1,2,4-oxadiazol-3-yl]cyclobutyl}pyridin-2-yl)pyrimidin-2-amine]
110 nM	1000 nM	Nc1ncc(-c2ccc(C3(c4noc(-c5cocn5)n4)CCC3)cn2)cn1 [Example 24, 5-(5-{1-[5-(1,3-oxazol-4-yl)-1,2,4-oxadiazol-3-yl]cyclobutyl}pyridin-2-yl)pyrimidin-2-amine]
110 nM	730 nM	Cn1cc(-c2nc(C3(c4ccc(-c5cnc(N)nc5)nc4)CCC3)no2)ccc1=O [Example 26, 5-(3-{1-[6-(2-aminopyrimidin-5-yl)pyridin-3-yl]cyclobutyl}-1,2,4-oxadiazol-5-yl)-1-methylpyridin-2(1H)-one]
12.4 nM	420 nM	Nc1ncc(-c2ccc(C3(c4noc(-c5ccc6nccn6c5)n4)CCC3)cn2)cn1 [Example 27, 5-(5-{1-[5-(imidazo[1,2-a]pyridin-6-yl)-1,2,4-oxadiazol-3-yl]cyclobutyl}pyridin-2-yl)pyrimidin-2-amine]
35 nM	320 nM	CC(CO)n1cc(-c2nc(C3(c4ccc(-c5cnc(N)nc5)nc4)CCC3)no2)cn1 (stereo not drawn) [Example 29, 2-[4-(3-{1-[6-(2-aminopyrimidin-5-yl)pyridin-3-yl]cyclobutyl}-1,2,4-oxadiazol-5-yl)-1H-pyrazol-1-yl]propan-1-ol]
1.9 nM	300 nM	Nc1ncc(-c2ccc(C3(c4noc(-c5ccc(-n6ccnc6)nc5)n4)CCC3)cn2)cn1 [Example 31, 5-[5-(1-{5-[6-(1H-imidazol-1-yl)pyridin-3-yl]-1,2,4-oxadiazol-3-yl}cyclobutyl)pyridin-2-yl]pyrimidin-2-amine]
2.9 nM	140 nM	Nc1ncc(-c2ccc(C3(c4noc(-c5ccc(O)cc5)n4)CCC3)cn2)cn1 [Example 32, 4-(3-{1-[6-(2-aminopyrimidin-5-yl)pyridin-3-yl]cyclobutyl}-1,2,4-oxadiazol-5-yl)phenol]
110 nM	790 nM	Cn1cnnc1-c1nc(C2(c3ccc(-c4cnc(N)nc4)nc3)CCC2)no1 [Example 37, 5-(5-{1-[5-(4-methyl-4H-1,2,4-triazol-3-yl)-1,2,4-oxadiazol-3-yl]cyclobutyl}pyridin-2-yl)pyrimidin-2-amine]
2.7 nM	100 nM	C[C@@H](O)CNc1ccc(-c2nc(C3(c4ccc(-c5cnc(N)nc5)nc4)CCC3)no2)cn1 [Example 44, (2R)-1-{[5-(3-{1-[6-(2-aminopyrimidin-5-yl)pyridin-3-yl]cyclobutyl}-1,2,4-oxadiazol-5-yl)pyridin-2-yl]amino}propan-2-ol]

From patent US8575201B2 (Boehringer Ingelheim International GmbH, priority 2010, dated 2013)
